In one data set the test system is HT29. Kind of data set: SRB assay, colon cancer cell growth inhibition. It is filed as cell-based. The following applies: Homo sapiens, HT-29, 48 h. As for the experimental part: (§1) A series of 4-phenyl-N-(thieno[2,3-b]pyrazin-3-yl)piperazine-1-carboxamides derivatives 7a–7i were tested for the colon cancer cell growth inhibition effect using the SRB assay (Table 2). […] Compounds 7a and 7b, containing chlorine at the C6 position of thieno[2,3-b]pyrazine ring, have weaker anticancer activity than its proton-containing derivatives 7c–7i. On the other hand, 7c has shown higher inhibition activity than 7d with methyl substituents at the C3 and C5 positions of the phenyl ring. […] Substitutions with one fluorine atom in the phenyl ring could not improve the inhibition effect of the compounds 7g–7h.
(§2) The HCT116, HCT8, KM12, HCT15, HT29, COLO-205, SW620 cell line was obtained from the National Cancer Institute (Material Transfer Agreement number: 2702–09). DLD1 cell line was obtained from the Korean cell line bank. Cells were cultured in complete Roswell Park Memorial Institute (RPMI) 1640 medium (Hyclone, South Logan, UT, USA) containing 10% fetal bovine serum (Hyclone, South Logan, UT, USA) in an atmosphere of 5% CO2 and 100% humidity at 37 °C. A small interfering RNA (siRNA) duplex targeting human c-Jun and FBXW7 (Genolution, Seoul, Korea) were introduced into cells using Lipofector-EXT (AptaBio, Yongin, Korea), according to the manufacturer’s instructions. As negative controls, cells were incubated with Lipofector-EXT (AptaBio, Yongin, KOR) and a negative siRNA (Genolution, Seoul, Korea).
(§3) Cells (100 μL containing 5000–10,000 cells/well) were incubated in 96 well microtiter plates. After 24 h, drugs were added (100 μL) to each well and the cultures were incubated for 48 h at 37 °C. The cells were then fixed in TCA (50 μL per well). The plates were incubated for a minimum of 1 h or a maximum of 3 h at 4 °C. The liquid was removed from the plate, which was then rinsed five times with water and allowed to dry at room temperature (rt) for approximately 12–24 h. The fixed cells were stained with 100 μL Sulforhodamine B (SRB) solution for 5 min at rt. After staining, the plate was washed three times with 1% glacial acetic acid and dried at rt for approximately 12–24 h. The SRB was then solubilized in 10 mM Tris buffer, and the absorbance was read at 515 nm. The effect of the drugs was expressed as GI50 (50% growth inhibition).
A general note: In SRB staining, fixed cells bind dye roughly in proportion to their protein.

The test system of a further data set is KM12. Put plainly: SRB assay, colon cancer cell growth inhibition. It is filed as cell-based. The following applies: Homo sapiens, 48 h. As for the experimental part:
as §1, §2, §3

For the next data set, the system named is HCT15. Kind of data set: SRB assay, colon cancer cell growth inhibition. It is filed as cell-based. The following applies: Homo sapiens, HCT-15, 48 h. As for the experimental part: as §1, §2, §3
In a further data set the test system is HCT8. Kind of data set: SRB assay, colon cancer cell growth inhibition. As to conditions: Homo sapiens, HCT-8, 48 h. It is filed as cell-based. As for the experimental part:
as §1, §2, §3

Another data set concerns SW620. Kind of data set: SRB assay, colon cancer cell growth inhibition. The format is cell-based. As to conditions: Homo sapiens, SW-620, 48 h. How it is done: as §1, §2, §3
Another data set concerns HCT116. Kind of data set: SRB assay, colon cancer cell growth inhibition. As to conditions: Homo sapiens, HCT-116; HCT116, SRB, 48 h. It is filed as cell-based. As for the experimental part: as §1, §2, §3
A further data set deals with Colo205. Put plainly: SRB assay, colon cancer cell growth inhibition. It is filed as cell-based. The following applies: Homo sapiens, COLO 205, 48 h. As for the experimental part: as §1, §2, §3
The next data set is described as follows: Solubility (logS). As to conditions: for solubility: thermodynamic from solid, read-out: Solubility (logS) Equilibrium (converted). The format is physicochemical. The text has this: Table 4 Physicochemical Properties of the Lead Compounds 7c. | column: 7c
Data set [1] concerns HCT116 mouse tumor models. Put plainly: HCT116 xenograft mouse tumor model. The following applies: 6 days/week, 21 days. The format is in vivo, nude BALB/c mice. How it is done:
We tested the inhibition effect by DGG200064 in the HCT116 mouse tumor models (Figure 6a). Cultured HCT116 cells were injected subcutaneously near the scapulae of 6-week-old female nude BALB/c mice. Oral administration of DGG200064 (60, 120 mg/kg) began when tumors reached a volume of 100 mm^3 and proceeded for 6 days/week. […] Mice were then injected intraperitoneally with BrdU and anesthetized 2 h later. They were then perfused with PBS and killed. To identify the level of c-Jun by DGG200064, HCT116 tumors harvested from mice were fixed and analyzed by immunohistochemical staining for Hematoxylin and c-Jun. […]
Xenografts were initiated in female Bagg and Albino (BALB)/c nude mice (6–8 weeks old; n = 18). […] The size of the primary tumors was measured every 2–3 days using calipers. Tumor volume was calculated using the formula, v = (A × B2)/2, where […] is the short diameter (mm). […]
The isolated tumors issued were then stained with antibodies against BrdU (1:700), c-Jun (1:50). […] Endogenous peroxidase activity was blocked with hydrogen peroxide, and background staining was blocked with V block solution, the primary antibodies were detected with horseradish […] (HRP)-conjugated polymer and developed with diaminobenzidine (DAB). […] Positively stained nuclei were counted, and the differences between the groups were analyzed using Student’s t-test, p values ≤0.05 were considered significant.

Data set [2] is described as follows: Maximum tolerated dose evaluation, 2 weeks. The format is in vivo. The following applies: 150 mg/kg oral administration, 2-week evaluation.

We go through one molecule from PMC9143821, “Design and Synthesis of a Novel 4-aryl-N-(2-alkoxythieno [2,3-b]pyrazine-3-yl)-4-arylpiperazine-1-carboxamide DGG200064 Showed Therapeutic Effect on Colon Cancer through G2/M Arrest” (Pharmaceuticals, 2022).

Values after ≈ are worked out from the molar mass of the structure shown. Like-named read-outs stand apart in the source and are kept apart here.

For `COc1cc(OC)cc(N2CCN(C(=O)Nc3nc4sccc4nc3OC)CC2)c1` [Compound 7c, 4-(3,5-Dimethoxyphenyl)-N-(2-methoxythieno[2,3-b]pyrazin-3-yl)piperazine-1-carboxamide], the 50% growth inhibitory concentration (GI50) was 17 nM in the data set with HT29; 8 nM with KM12; 26 nM in the data set with HCT15; 54 nM in the data set with HCT8; 27 nM with SW620; 12 nM in the data set on HCT116. Further, growth in the data set on Colo205 was halved (GI50) at 24 nM. For the same molecule, the solubility is 2090 µM (≈ 897 µg/mL) in “Solubility (logS)” (pH 2, aqueous buffer, pH2.0); 603 µM (≈ 259 µg/mL) in the data set “Solubility (logS)” (pH 7.4, aqueous buffer, pH7.4); 617 µM (≈ 265 µg/mL) in the data set “Solubility (logS)” (pH 9, aqueous buffer, pH9.0). The same molecule showed a solubility (kinetic) in “Solubility (logS)” (pH 7.4, aqueous buffer, kinetic from dmso stock, pH7.4) of 741 µM (≈ 318 µg/mL). For the same molecule, the “c-Jun expression increase in tumors compared to the control group (IHC)” value stood at 1.2 fold in data set [1] (60 mg/kg oral) and 2 fold in data set [1] (120 mg/kg oral). The body weight result in data set [2] is “no loss of body weight”.

The GI50 is the concentration that inhibits growth by half. In general, solubility refers to the dissolved amount per volume that the medium holds. In general, kinetic solubility refers to solubility judged after dilution from a stock solution rather than from solid.
